According to publication PMC2116148 (The Journal of Cell Biology, 1990):

Columns and labels:
Assay type in all cases: cell-based, mouse
[1] = tested on: K1735 M4 murine melanoma cell line; test: Cell adhesion and spreading assay on peptide- or protein-coated Immulon 1 plates
[2] = tested on: M4 melanoma cells; details: even at the highest concentrations tested (Fig. 7, up to 500 μg/ml)
[3] = tested on: M4 melanoma cells; details: filters coated with type IV collagen; soluble control peptide (Fig. 3c)

Substance	melanoma cell spreading compared with peptide IV-H1 ([1]; all peptide concentrations (5-500 μg/ml), all time points (20-90 min) (Fig. 6))	melanoma cell adhesion on alanyl-substituted peptide compared with peptide IV-H1 ([1]; coated surfaces, up to 500 μg/ml (Fig. 5))	cell motility through coated filters [2]	promotion of melanoma cell adhesion or spreading ([1]; control peptide, coated surface)	effect on type IV collagen-mediated cell motility [3]
GVKGDKGNAGWAGAA(Y) [peptide IV-H1A]	decreased ability to spread	nearly the same extent	not observed	–	–
GVPGKDGQAGQPGQP(Y) [peptide 17]	–	–	–	does not promote	no effect
